Legend:
[1] = target: T1, IRAK1 enzyme (Homo sapiens, UniProt P51617); experiment: IRAK1 enzyme activity inhibition (ADP-Glo, Promega kit); assay type: biochemical; conditions: for inhibition at 0.1 µM: test compound 0.1 uM; for inhibition at 1 µM: test compound 1 uM
T1 construct: purchased Promega VA7477
Method: An experiment on IRAK1 enzyme activity inhibition of the compound of the present invention was conducted.
An IRAK1 enzyme kit (purchased from Promega, product number: VA7477) was used to dilute a mixed solution between 0.1 µg/µL of protein kinase B (AKT), which is an enzyme-reactive substrate, and 1.25 mM of ATP with a reaction buffer (40 mM Tris-HCl, pH 7.5; 20 mM MgCl2; 0.1 mg/mL BSA; 50 µM DTT) according to the instructions, so as to dispense 2 µL in a 384-well white plate, and then to add 1 µL of a test compound, which was gradient diluted starting from 1 mM, to a 384-well white plate. After that, an IRAK1 enzyme was diluted with a reaction buffer to a final concentration of 5 ng/µL, then 2 µL/well was dispensed into a 384-well white plate and reacted at 37°C for 60 minutes. After completion of a reaction, an ADP-GloTM enzyme test kit (purchased from Promega, product number: V9102) was used to add 5 µL of ADP-Glo reaction reagent and cause a reaction at 37°C for 40 minutes, and then 10 µL of enzyme chromogenic reagent was added again to measure a luminescence signal using equipment for measuring absorbance (THECAN, Microplate Reader). An activity inhibition rate was calculated from a measured value, and a 50% inhibition concentration (IC50 value) was analyzed through a non-linear regression analysis based on the % inhibition for each concentration of the test compound, and is shown in Table 3.

[2] = target: T2, IRAK4 enzyme (Homo sapiens, UniProt Q9NWZ3); experiment: IRAK4 enzyme activity inhibition (ADP-Glo, Promega kit); assay type: biochemical; conditions: for inhibition at 0.1 µM: test compound 0.1 uM; for inhibition at 1 µM: test compound 1 uM
T2 construct: purchased Promega V2621
T2 sequence (Q9NWZ3 1-460): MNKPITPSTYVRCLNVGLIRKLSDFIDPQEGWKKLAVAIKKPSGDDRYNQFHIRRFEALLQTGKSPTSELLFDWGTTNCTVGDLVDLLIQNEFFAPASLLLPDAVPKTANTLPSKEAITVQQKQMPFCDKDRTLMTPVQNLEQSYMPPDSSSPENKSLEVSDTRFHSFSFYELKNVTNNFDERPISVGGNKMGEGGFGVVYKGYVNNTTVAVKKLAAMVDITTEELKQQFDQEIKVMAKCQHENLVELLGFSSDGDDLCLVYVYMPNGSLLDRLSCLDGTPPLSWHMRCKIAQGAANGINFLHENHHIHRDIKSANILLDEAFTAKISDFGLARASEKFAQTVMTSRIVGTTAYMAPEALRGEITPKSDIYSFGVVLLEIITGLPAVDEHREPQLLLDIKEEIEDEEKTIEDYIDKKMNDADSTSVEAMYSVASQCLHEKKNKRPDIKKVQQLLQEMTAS
Method: An experiment on IRAK4 enzyme activity inhibition of the compound of the present invention was conducted.
An IRAK4 enzyme kit (purchased from Promega, product number: V2621) was used to dilute a mixed solution between 0.1 µg/µL of myelin basic protein (MBP), which is an enzyme-reactive substrate, and 1.25 mM of ATP with a reaction buffer (40 mM Tris-HCl, pH 7.5; 20 mM MgCl2; 0.1 mg/mL BSA; 50 µM DTT) according to the instructions, so as to dispense 2 µL in a 384-well white plate, and then to add 1 µL of a test compound, which was gradient diluted starting from 1 mM, to a 384-well plate. After that, an IRAK4 enzyme was diluted with a reaction buffer to a final concentration of 5 ng/µL, then 2 µL/well was dispensed into a 384-well white plate and reacted at 37°C for 60 minutes. After completion of a reaction, an ADP-GloTM enzyme test kit (purchased from Promega, product number: V9102) was used to add 5 µL of ADP-Glo reaction reagent and cause a reaction at 37°C for 40 minutes, and then 10 µL of enzyme chromogenic reagent was added again to measure a luminescence signal using equipment for measuring absorbance (THECAN, Microplate Reader). An activity inhibition rate was calculated from a measured value, and a 50% inhibition concentration (IC50 value) was analyzed through a non-linear regression analysis based on the % inhibition for each concentration of the test compound, and is shown in Table 2.

[3] = tested on: hPBMC TNFα; experiment: Cell-based inflammatory cytokine secretion inhibition (LPS-stimulated PBMC, hTNF-α ELISA); conditions: human PBMC, LPS 1 µg/mL, hTNF-α by ELISA, mean; read-out: hPBMC TNFα IC50_mean
Method: An experiment on inflammatory cytokine secretion inhibition of the compound of the present invention was conducted.
PBMC (LONZA, peripheral blood mononuclear cells) isolated from human whole blood was dispensed into a 96-well plate at a density of 1.0 X 10^5 cells/well, and the cells were stabilized for 20 hours. After that, a test compound diluted at each of four concentrations was added to a Roswell Park Memorial Institute (RPMI) medium, reacted for one hour, treated with lipopolysaccharide (LPS) to reach a final concentration of 1 µg/mL, and further reacted for one hour. hTNF-α, which is an inflammatory cytokine, was measured by an enzyme linked immunosorbent assay using an ELISA kit from Goma Biotech. A cell supernatant, a standard drug, and an antibody were added to an ELISA-plate and reacted for four hours in total, after which the plate was washed, reacted with streptavidin-HRP for 30 minutes, and washed again. After that, a TMB substrate was added and reacted in a dark place, and when a color was sufficiently developed, a stop solution was added to stop the reaction. hTNF-α was measured by measuring absorbance at 450 nm using equipment for absorption measurement (Microplate Reader from BioTeK). An activity inhibition rate was calculated from a measured absorbance value, a % inhibition for each concentration of the test compound was calculated, a 50% inhibition concentration (IC50 value) was analyzed through a non-linear regression analysis, and the results are shown in Table 4.

T1 sequence (P51617 whole entry): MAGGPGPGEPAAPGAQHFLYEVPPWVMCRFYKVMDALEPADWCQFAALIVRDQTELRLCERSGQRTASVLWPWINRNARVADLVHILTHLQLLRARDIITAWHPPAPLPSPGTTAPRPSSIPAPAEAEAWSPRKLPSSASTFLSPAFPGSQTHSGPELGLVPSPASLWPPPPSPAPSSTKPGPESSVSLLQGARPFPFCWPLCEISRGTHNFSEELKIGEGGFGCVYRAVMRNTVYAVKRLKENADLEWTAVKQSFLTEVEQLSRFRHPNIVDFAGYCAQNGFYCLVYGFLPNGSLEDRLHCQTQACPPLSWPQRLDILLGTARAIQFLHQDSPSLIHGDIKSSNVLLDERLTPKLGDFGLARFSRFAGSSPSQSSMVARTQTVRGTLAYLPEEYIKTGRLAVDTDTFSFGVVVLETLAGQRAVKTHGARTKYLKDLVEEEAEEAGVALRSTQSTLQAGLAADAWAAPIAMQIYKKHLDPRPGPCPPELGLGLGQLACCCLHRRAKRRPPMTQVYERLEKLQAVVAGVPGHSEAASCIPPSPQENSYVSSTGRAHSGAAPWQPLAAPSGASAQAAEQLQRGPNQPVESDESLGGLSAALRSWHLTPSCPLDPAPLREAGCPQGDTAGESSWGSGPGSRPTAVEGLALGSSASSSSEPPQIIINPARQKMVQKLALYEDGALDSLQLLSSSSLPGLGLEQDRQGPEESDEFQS

Row | SMILES | inhibition at 0.1 µM [1] [%] | inhibition at 1 µM [1] [%] | IC50 [2] [nM] | inhibition at 0.1 µM [2] [%] | IC50 [3] [nM] | IC50 [1] [nM] | inhibition at 1 µM [2] [%]
1 | CC(C)(O)CCn1cc2cc(NC(=O)c3ccc(N)c([N+](=O)[O-])c3)c(N3CCOCC3)cc2n1 [Example 23, 4-amino-N-(2-(3-hydroxy-3-methylbutyl)-6-morpholino-2H-indazol-5-yl)-3-nitrobenzamide] | 26 | 45.3 | 10.5 | 88 | 601 | – | –
2 | CC(C)(O)CCn1cc2cc(NC(=O)c3cccc(-c4ccn[nH]4)n3)c(N3CCOCC3)cc2n1 [Example 21, N-(2-(3-hydroxy-3-methylbutyl)-6-morpholino-2H-indazol-5-yl)-6-(1H-pyrazol-5-yl)picolinamide] | 67.2 | 82.4 | 1.5 | 89.3 | 11.9 | 70 | 97.9
3 | CC(C)(O)CCn1cc2cc(NC(=O)c3cccc([N+](=O)[O-])c3)c(N3CCC(O)CC3)cc2n1 [Example 32, N-(2-(3-hydroxy-3-methylbutyl)-6-(4-hydroxypiperidin-1-yl)-2H-indazol-5-yl)-3-nitrobenzamide] | 17.5 | 52 | 2 | 87.1 | 113 | – | –
4 | CC(C)(O)CCn1cc2cc(NC(=O)c3cccc(S(N)(=O)=O)c3)c(N3CCOCC3)cc2n1 [Example 15] | 28.5 | 66.5 | 3.7 | 88.8 | 575 | – | 95.2
5 | CC(C)(O)CCn1cc2cc(NC(=O)c3cncc([N+](=O)[O-])c3)c(N3CCOCC3)cc2n1 [Example 2, N-(2-(3-hydroxy-3-methylbutyl)-6-morpholino-2H-indazol-5-yl)-5-nitronicotinamide] | 32.1 | – | 56.7 | 72.7 | 526 | – | 86.5
6 | CC(C)(O)CCn1cc2cc(NC(=O)c3cccc([N+](=O)[O-])c3)c(N3CCOCC3)cc2n1 [Example 3, N-(2-(3-hydroxy-3-methylbutyl)-6-morpholino-2H-indazol-5-yl)-3-nitrobenzamide] | – | – | 0.2 | 81.7 | 51.8 | 2600 | 94.4
7 | CC(C)(O)CCn1cc2cc(NC(=O)c3cccc(S(N)(=O)=O)c3)c(N3CCC(C(C)(C)O)CC3)cc2n1 [Example 29, N-(2-(3-hydroxy-3-methylbutyl)-6-(4-(2-hydroxypropan-2-yl)piperidin-1-yl)-2H-indazol-5-yl)-3-sulfamoylbenzamide] | 54.2 | – | 0.88 | 93.3 | 20.4 | – | –
8 | CC(C)(O)CCn1cc2cc(NC(=O)c3cccc([N+](=O)[O-])c3F)c(N3CCOCC3)cc2n1 [Example 22, 2-fluoro-N-(2-(3-hydroxy-3-methylbutyl)-6-morpholino-2H-indazol-5-yl)-3-nitrobenzamide] | 30.3 | 47.2 | 40.3 | 88.3 | – | – | –
9 | CC(C)(O)Cn1cc2cc(NC(=O)c3cccc([N+](=O)[O-])c3)c(-c3ccsc3)cc2n1 [Example 50, N-(2-(2-hydroxy-2-methylpropyl)-6-(thiophen-3-yl)-2H-indazol-5-yl)-3-nitrobenzamide] | – | 9.6 | – | 55.1 | – | – | 68.8

From EP4737451A1 (Dong Wha Pharm. Co., Ltd., priority 2023, dated 2025)
